Assay results as given in US12491170B2, “Stable treprostinil prodrugs” (United Therapeutics Corporation, priority 2020, dated 2025).
Where two headings read alike, the source gives them in different places. Values belong to the compound of their own block, whether it stands above or below them.

How the values were obtained:
[1] = Hydrolysis of prodrugs to treprostinil at pH 6, 7, 8 and 40 C; type: physicochemical
Text: Tables 24, 25 and 26 present data for hydrolysis of selected treprostinil prodrugs at pH 6, 7 and 8, respectively, and 40 C.

[2] = Stability in liver microsomes, human
Experimental: (§1) Mixed-gender human liver microsomes, male Sprague-Dawley rat liver microsomes, and male Beagle dog liver microsomes were purchased from XenoTech. The reaction mixture, minus NADPH, was prepared as described below. […] An aliquot of the reaction mixture (without cofactor) was equilibrated in a shaking water bath at 37° C. for 5 minutes. The reaction was initiated by the addition of cofactor, and the mixture was incubated in a shaking water bath at 37° C. Aliquots (200 μL) were withdrawn at 0, 10, 20, 30, and 60 minutes. Test article samples were immediately combined with 400 μL of ice-cold acetonitrile (ACN) to terminate the reaction. […] The samples were then mixed and centrifuged to precipitate proteins. Aliquots of the supernatant were removed, diluted 1:1 into distilled water containing internal standard, and analyzed by LC-MS/MS against calibration standards prepared in a matched matrix. All samples were analyzed for the dosed prodrugs as well as the drug, treprostinil. The test article concentration was compared to the concentration at time 0 to determine the percent of test article remaining at each time point. Half-lives and clearance were calculated using GraphPad software, fitting to a single-phase exponential decay equation.
(§2) • Liver Microsomes 0.5 mg/mL • NADPH (cofactor) 1 mM • Potassium Phosphate, pH 7.4 100 mM • Magnesium Chloride 5 mM • Test Article 1 μM

[3] = Stability in cryopreserved hepatocytes, human
Experimental: (§3) Mixed-gender human cryopreserved hepatocytes, male Sprague-Dawley rat cryopreserved hepatocytes, and male Beagle dog cryopreserved hepatocytes were purchased from XenoTech. The hepatocytes were thawed and prepared according to the vendor's instructions, pooled into Krebs Henseleit buffer (KHB, pH 7.4), and kept on ice prior to the experiments. […] The final DMSO content in the incubation mixture was ≤0.1%. […] Aliquots of the test article were withdrawn (n=1) at 0, 15, 30, 60, and 120 minutes. […] Aliquots of 7-HC were withdrawn (n=1) at 0 and 15 minutes. The reaction was immediately terminated by adding two volumes of ice-cold acetonitrile (ACN) to the test article samples and three volumes of ACN containing internal standard to the positive control samples. The samples were then mixed and centrifuged to precipitate proteins. An aliquot of the supernatant was then diluted with water and analyzed by LC-MS/MS against calibration standards prepared in a matched matrix. […] All test article samples were analyzed for the dosed prodrugs as well as the drug, treprostinil. The test article concentration was compared to the concentration at time 0 to determine the percent of test article remaining at each time point. Half-lives and clearance values were calculated using GraphPad software, fitting to a single-phase exponential decay equation.

[4] = Stability in cryopreserved hepatocytes, rat
Experimental: as §3

[5] = Stability in cryopreserved hepatocytes, dog
Experimental: as §3

[6] = rat
[7] = dog
[8] = Stability in liver microsomes, rat
Experimental: as §1, §2

[9] = Stability in liver microsomes, dog
Experimental: as §1, §2

[10] = Stability in human subcutaneous skin homogenate
Experimental: The pool of skin homogenate was prepared by combining equal volumes of three lots that were tested in the initial skin homogenate lot assessment experiments.
A stock solution of calcein-AM was first prepared at 5 mM in DMSO, followed by a serial dilution into methanol at a concentration of 100 μM. 495 μL of skin homogenate was thawed and warmed to 37° C. A 5 μL aliquot of the 100 μM calcein-AM solution was spiked into the skin homogenate, for a final calcein-AM dosing concentration of 1 μM. After briefly mixing, 150 μL aliquots were removed in triplicate and transferred to 96-well Falcon plates. The plates were placed onto a Thermomixer and maintained at 37° C., with gentle shaking for the duration of the experiment. At each time point (0, 15, 30, 60, and 120 minutes), the plate was removed from the Thermomixer and transferred to a FLUOstar® plate reader, and the formation of calcein (Sigma) was monitored by fluorescence (490/515 nm). Calibration standards of calcein were prepared in distilled water by serial dilutions of a calcein DMSO stock at final concentrations ranging from 1 μM to 1 nM. All samples and standards were read concurrently (Table 13).
For each of the test articles, 495 μL of skin homogenate was added to triplicate centrifuge tubes. To each tube, 5 μL of a 100 μM solution of test article was added, for a final test article dosing concentration of 1 μM. The tubes were placed onto a Thermomixer and maintained at 37° C. with gentle shaking for the duration of the experiment. At each time point (0, 30, 60, and 120 minutes), a 100 μL aliquot was removed from each tube and combined with 200 μL of acetonitrile to stop the stability reaction. The tubes were mixed and centrifuged at 3000 rpm for 10 minutes. Aliquots of supernatant were removed and diluted 1:1 with distilled water containing internal standard (2 μM treprostinil-d4). Calibration standards for the treprostinil analysis were prepared for each test article in a surrogate matrix (supernatant from a mixture of 1:2 human plasma:acetonitrile), at concentrations ranging from 1 μM to 1 nM. Calibration standards were also diluted 1:1 with distilled water containing internal standard. The disappearance of each individual test article was monitored, as well as the formation of treprostinil (Table 14 and Table 15).

Compound: CCCCCC(CCC1C(O)CC2Cc3c(cccc3OCC(=O)O)CC21)OC(=O)OC (stereo not drawn) [IV]
AUC ([2]; human): 16.85 µmol·min/L | AUC ([3]; human): 39.76 µmol·min/L | AUC ([4]; rat): 70.03 µmol·min/L | AUC ([5]; dog): 47.99 µmol·min/L | AUC [6]: 49.70 µmol·min/L | AUC [7]: 55.95 µmol·min/L

Compound: CCCCCC(CCC1C(O)CC2Cc3cccc(OCC(=O)O)c3CC21)OC(=O)CCC(=O)N1CCN(C)CC1 (stereo not drawn) [XXXIV]
Trep Concentration 0 min ([2]; Liver Microsomes, Human, 0 min): 0 µM | Trep Concentration 10 min ([2]; Liver Microsomes, Human, 10 min): 0 µM | Trep Concentration 20 min ([2]; Liver Microsomes, Human, 20 min): 0 µM | Trep Concentration 30 min ([2]; Liver Microsomes, Human, 30 min): 0 µM | Trep Concentration 60 min ([2]; Liver Microsomes, Human, 60 min): 0 µM | AUC ([2]; Liver Microsomes, Human, treprostinil 0-60 min): 0.00 µmol·min/L | Trep Concentration 0 min ([8]; Liver Microsomes, Rat, 0 min): 0 µM | Trep Concentration 10 min ([8]; Liver Microsomes, Rat, 10 min): 0 µM | Trep Concentration 20 min ([8]; Liver Microsomes, Rat, 20 min): 0.0132 µM | Trep Concentration 30 min ([8]; Liver Microsomes, Rat, 30 min): 0.0158 µM | Trep Concentration 60 min ([8]; Liver Microsomes, Rat, 60 min): 0.0224 µM | AUC ([8]; Liver Microsomes, Rat, treprostinil 0-60 min): 0.78 µmol·min/L | Trep Concentration 0 min ([9]; Liver Microsomes, Dog, 0 min): 0 µM | Trep Concentration 10 min ([9]; Liver Microsomes, Dog, 10 min): 0 µM | Trep Concentration 20 min ([9]; Liver Microsomes, Dog, 20 min): 0 µM | Trep Concentration 30 min ([9]; Liver Microsomes, Dog, 30 min): 0 µM | Trep Concentration 60 min ([9]; Liver Microsomes, Dog, 60 min): 0.0104 µM | AUC ([9]; Liver Microsomes, Dog, treprostinil 0-60 min): 0.16 µmol·min/L | AUC ([3]; Hepatocytes, Human, AUC of treprostinil concentration 0-120 min): 1.90 µmol·min/L | Trep Concentration (μM) 0 min ([3]; Hepatocytes, Human, treprostinil formed from test article dosed, 0 min): 0 µM | Trep Concentration (μM) 15 min ([3]; Hepatocytes, Human, treprostinil formed from test article dosed, 15 min): 0 µM | Trep Concentration (μM) 30 min ([3]; Hepatocytes, Human, treprostinil formed from test article dosed, 30 min): 0.0107 µM | Trep Concentration (μM) 60 min ([3]; Hepatocytes, Human, treprostinil formed from test article dosed, 60 min): 0.0174 µM | Trep Concentration (μM) 120 min ([3]; Hepatocytes, Human, treprostinil formed from test article dosed, 120 min): 0.0293 µM | AUC ([4]; Hepatocytes, Rat, AUC of treprostinil concentration 0-120 min): 8.62 µmol·min/L | Trep Concentration (μM) 0 min ([4]; Hepatocytes, Rat, treprostinil formed from test article dosed, 0 min): 0 µM | Trep Concentration (μM) 15 min ([4]; Hepatocytes, Rat, treprostinil formed from test article dosed, 15 min): 0.023 µM | Trep Concentration (μM) 30 min ([4]; Hepatocytes, Rat, treprostinil formed from test article dosed, 30 min): 0.0447 µM | Trep Concentration (μM) 60 min ([4]; Hepatocytes, Rat, treprostinil formed from test article dosed, 60 min): 0.0915 µM | Trep Concentration (μM) 120 min ([4]; Hepatocytes, Rat, treprostinil formed from test article dosed, 120 min): 0.105 µM | AUC ([5]; Hepatocytes, Dog, AUC of treprostinil concentration 0-120 min): 1.30 µmol·min/L | Trep Concentration (μM) 0 min ([5]; Hepatocytes, Dog, treprostinil formed from test article dosed, 0 min): 0 µM | Trep Concentration (μM) 15 min ([5]; Hepatocytes, Dog, treprostinil formed from test article dosed, 15 min): 0 µM | Trep Concentration (μM) 30 min ([5]; Hepatocytes, Dog, treprostinil formed from test article dosed, 30 min): 0.0101 µM | Trep Concentration (μM) 60 min ([5]; Hepatocytes, Dog, treprostinil formed from test article dosed, 60 min): 0.0153 µM | Trep Concentration (μM) 120 min ([5]; Hepatocytes, Dog, treprostinil formed from test article dosed, 120 min): 0.0127 µM | Trep Concentration 0 min ([10]; Skin Homogenate, Human, 0 min): 0 µM | Trep Concentration 30 min ([10]; Skin Homogenate, Human, 30 min): 0 µM | Trep Concentration 60 min ([10]; Skin Homogenate, Human, 60 min): 0 µM | Trep Concentration 120 min ([10]; Skin Homogenate, Human, 120 min): 0 µM | AUC ([10]; Skin Homogenate, Human, treprostinil 0-120 min): 0.00 µmol·min/L

Compound: CCCCCC(CCC1C(O)CC2Cc3c(cccc3OCC(=O)O)CC21)OC(=O)OC (stereo not drawn) [Prodrug IV]
AUC Mono (treprostinil formed) ([2]; human): 16.9 µmol·min/L | AUC Mono (treprostinil formed) ([8]; rat): 49.7 µmol·min/L | AUC Mono (treprostinil formed) ([9]; dog): 56.0 µmol·min/L | Mono AUC (treprostinil formed) ([3]; human): 39.8 µmol·min/L | Mono AUC (treprostinil formed) ([4]; rat): 70.0 µmol·min/L | Mono AUC (treprostinil formed) ([5]; dog): 48.0 µmol·min/L | Mono AUC (treprostinil formed) ([10]; human): 9.59 µmol·min/L

Compound: CCCCCC(CCC1C(O)CC2Cc3c(cccc3OCC(=O)O)CC21)OC(=O)c1ccc(OC(F)(F)F)cc1 (stereo not drawn) [LXIII]
Trep Concentration 0 min [2]: 0.12 µM | Trep Concentration 10 min [2]: 0.184 µM | Trep Concentration 20 min [2]: 0.24 µM | Trep Concentration 30 min [2]: 0.268 µM | Trep Concentration 60 min [2]: 0.275 µM | AUC ([2]; human): 14.33 µmol·min/L | Trep Concentration 0 min [8]: 0.0393 µM | Trep Concentration 10 min [8]: 0.0539 µM | Trep Concentration 20 min [8]: 0.0653 µM | Trep Concentration 30 min [8]: 0.0747 µM | Trep Concentration 60 min [8]: 0.0824 µM | Trep Concentration 0 min [9]: 0.104 µM | Trep Concentration 10 min [9]: 0.16 µM | Trep Concentration 20 min [9]: 0.222 µM | Trep Concentration 30 min [9]: 0.243 µM | Trep Concentration 60 min [9]: 0.342 µM | AUC [6]: 4.12 µmol·min/L | AUC [7]: 14.33 µmol·min/L

Results, then the compound that gave them:

Hydrolysis to treprostinil, % Area, t = 1 week ([1]; pH 6, 40 C.): 0.00 % Area | Hydrolysis to treprostinil, % Area, t = 2 weeks ([1]; pH 6, 40 C.): 0.00 % Area | Hydrolysis to treprostinil, % Area, t = 3 weeks ([1]; pH 6, 40 C.): 0.00 % Area | Hydrolysis to treprostinil, % Area, t = 1 week ([1]; pH 7, 40 C.): 0.00 % Area | Hydrolysis to treprostinil, % Area, t = 2 weeks ([1]; pH 7, 40 C.): 0.00 % Area | Hydrolysis to treprostinil, % Area, t = 3 weeks ([1]; pH 7, 40 C.): 0.00 % Area | Hydrolysis to treprostinil, % Area, t = 1 week ([1]; pH 8, 40 C.): 0.00 % Area | Hydrolysis to treprostinil, % Area, t = 2 weeks ([1]; pH 8, 40 C.): 0.00 % Area | Hydrolysis to treprostinil, % Area, t = 3 weeks ([1]; pH 8, 40 C.): 0.00 % Area
Compound: CCCCCC(CCC1C(O)CC2Cc3c(cccc3OCC(=O)O)CC21)OC(=O)c1ccc(O)cc1 (stereo not drawn) [Prodrug LXVIII]

AUC ([2]; human): 0.00 µmol·min/L | AUC ([3]; human): 0.00 µmol·min/L | AUC ([4]; rat): 10.79 µmol·min/L | AUC ([5]; dog): 0.00 µmol·min/L | AUC [6]: 0.39 µmol·min/L | AUC [7]: 0.00 µmol·min/L
Compound: CCCCCC(O)CCC1C(O)CC2Cc3c(cccc3OCC(=O)NCC(=O)O)CC21 (stereo not drawn) [VII]

Hydrolysis to treprostinil, % Area, t = 1 week ([1]; pH 6, 40 C.): 0.47 % Area | Hydrolysis to treprostinil, % Area, t = 2 weeks ([1]; pH 6, 40 C.): 1.2 % Area | Hydrolysis to treprostinil, % Area, t = 3 weeks ([1]; pH 6, 40 C.): 1.9 % Area | Hydrolysis to treprostinil, % Area, t = 1 week ([1]; pH 7, 40 C.): 0.05 % Area | Hydrolysis to treprostinil, % Area, t = 2 weeks ([1]; pH 7, 40 C.): 1.0 % Area | Hydrolysis to treprostinil, % Area, t = 3 weeks ([1]; pH 7, 40 C.): 1.5 % Area | Hydrolysis to treprostinil, % Area, t = 1 week ([1]; pH 8, 40 C.): 0.73 % Area | Hydrolysis to treprostinil, % Area, t = 2 weeks ([1]; pH 8, 40 C.): 1.6 % Area | Hydrolysis to treprostinil, % Area, t = 3 weeks ([1]; pH 8, 40 C.): 2.6 % Area
Compound: CCCCCC(CCC1C(O)CC2Cc3c(cccc3OCC(=O)O)CC21)OC(=O)c1ccc(O)c(O)c1 (stereo not drawn) [Prodrug LXVI]
